Data: patent US20240383954A1, “PEPTIDE INHIBITORS OF INTERLEUKIN-23 RECEPTOR AND THEIR USE TO TREAT INFLAMMATORY DISEASES” (Janssen Biotech, Inc., priority 2020, published 2024)
Starred links: 1 amine or outer side, 2 acyl side, 3 side chain; linkers in the order of their positions; H or OH if unused. Positions of bridges follow the written chain, without caps; N, C: chain ends. Non-standard residues stand in square brackets, D forms with d. Residues, ends and D or L forms follow the SMILES beside them. *: point of attachment. Phe(3,4-(OMe)2) = COc1ccc(C[C@H](N)C(=O)O)cc1OC; Trp(7-Me) = Cc1cccc2c(C[C@H](N)C(=O)O)c[nH]c12; Abu(4-yl) = O=C([C@H](CC[*:3])N[*:1])[*:2]; 2Nal = N[C@@H](Cc1ccc2ccccc2c1)C(=O)O; Propanoyl(3,3,3-F3) = O=C(CC(F)(F)F)*; AEF = NCCOc1ccc(C[C@H](N)C(=O)O)cc1; αMeY = C[C@](N)(Cc1ccc(O)cc1)C(=O)O; αMeF = C[C@](N)(Cc1ccccc1)C(=O)O; αMeE = C[C@](N)(CCC(=O)O)C(=O)O; Pen = CC(C)(S)[C@H](N)C(=O)O; Thp = NC1(C(=O)O)CCOCC1; Pentanoyl = CCCCC(=O)*; Boc = CC(C)(C)OC(=O)*

Target: IL-23R (Homo sapiens, UniProt Q5VWK5)
Sequence (Q5VWK5 24-629): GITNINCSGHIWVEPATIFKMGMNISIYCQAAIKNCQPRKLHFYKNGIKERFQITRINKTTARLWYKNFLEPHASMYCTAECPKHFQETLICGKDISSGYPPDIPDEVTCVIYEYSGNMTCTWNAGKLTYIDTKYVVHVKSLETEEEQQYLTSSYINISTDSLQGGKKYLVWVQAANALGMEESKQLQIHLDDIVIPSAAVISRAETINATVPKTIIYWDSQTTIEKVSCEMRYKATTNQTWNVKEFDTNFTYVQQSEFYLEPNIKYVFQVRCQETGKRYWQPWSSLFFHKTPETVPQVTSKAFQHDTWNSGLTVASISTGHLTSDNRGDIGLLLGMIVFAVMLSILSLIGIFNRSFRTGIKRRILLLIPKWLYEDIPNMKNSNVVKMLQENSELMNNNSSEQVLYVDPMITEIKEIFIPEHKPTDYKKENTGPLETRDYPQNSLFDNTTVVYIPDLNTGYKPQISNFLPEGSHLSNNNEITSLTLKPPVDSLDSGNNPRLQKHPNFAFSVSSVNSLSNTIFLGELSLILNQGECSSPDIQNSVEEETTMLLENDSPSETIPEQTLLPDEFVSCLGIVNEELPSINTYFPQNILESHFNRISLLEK
Assay: cell-based
Settings: PBMC pSTAT3 IC50 (nM), PBMCs from healthy donors, IL-23 5 ng/mL, 30 minutes, phosphorylated STAT3
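Further: cryopreserved PBMCs stimulated at 37 °C in 5% CO2, then lysed, with phosphorylated STAT3 quantified in lysates using a phospho-STAT panel kit.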

SMILES | IC50 [nM]
CC(=O)NCCCC[C@@H]1NC(=O)[C@H](Cc2c[nH]c3c(C)cccc23)NC(=O)[C@H]([C@@H](C)O)NC(=O)[C@H](CC(N)=O)NC(=O)[C@@H](NC(=O)[C@H](N)CCCNC(=N)N)C(C)(C)SSC(C)(C)[C@@H](C(=O)N[C@@H](Cc2ccc(OCCNC(=O)OC(C)(C)C)cc2)C(=O)N[C@@H](Cc2ccc3ccccc3c2)C(=O)NC2(C(=O)N[C@@H](CCC(=O)O)C(=O)N[C@@H](CC(N)=O)C(=O)N[C@@](C)(Cc3ccccc3)C(N)=O)CCOCC2)NC1=O [Compound 305, NH2-r-Pen-N-T-7MeW-K(Ac)-Pen-AEF(Boc)-2Nal-THP-E-N-aMePhe-CONH2] (H-[dR][Pen]NT[Trp(7-Me)]K(Ac)[Pen][AEF](Boc)[2Nal][Thp]EN[αMeF]-NH2; disulfide 2-7) | 17
C[C@@H](O)[C@@H]1NC(=O)[C@H](CCC(N)=O)NC(=O)[C@@H](NC(=O)[C@@H](CCCNC(=N)N)NC(=O)CC(F)(F)F)C(C)(C)SSC(C)(C)[C@@H](C(=O)N[C@@H](Cc2ccc(OCCN)cc2)C(=O)N[C@@H](Cc2ccc3ccccc3c2)C(=O)NC2(C(=O)N[C@@H](CCC(=O)O)C(=O)N[C@@H](CC(N)=O)C(=O)NC3(C(N)=O)CCOCC3)CCOCC2)NC(=O)[C@H](CCC(N)=O)NC(=O)[C@H](Cc2c[nH]c3ccccc23)NC1=O [Compound 5, [3,3,3-Trifluoropropionic acid]-[(D)Arg]-[Pen]-Q-T-W-Q-[Pen]-Phe[4-(2-aminoethoxy)]-[2-Nal]-[THP]-E-N-[THP]-NH2] ({Propanoyl(3,3,3-F3)}-[dR][Pen]QTWQ[Pen][AEF][2Nal][Thp]EN[Thp]-NH2; disulfide 2-7) | 4.7
CCCCC(=O)N[C@H](CCCNC(=N)N)C(=O)N[C@@H]1C(=O)N[C@@H](CCC(N)=O)C(=O)N[C@@H]([C@@H](C)O)C(=O)N[C@@H](Cc2c[nH]c3ccccc23)C(=O)N[C@@H](CCC(N)=O)C(=O)N[C@H](C(=O)N[C@@H](Cc2ccc(OCCN)cc2)C(=O)N[C@@H](Cc2ccc3ccccc3c2)C(=O)NC2(C(=O)N[C@@H](CCC(=O)O)C(=O)N[C@@H](CC(N)=O)C(=O)NC3(C(N)=O)CCOCC3)CCOCC2)C(C)(C)SSC1(C)C [Compound 9, [Pentanoic acid]-[(D)Arg]-[Pen]-Q-T-W-Q-[Pen]-Phe[4-(2-aminoethoxy)]-[2-Nal]-[THP]-E-N-[THP]-NH2] (Pentanoyl-[dR][Pen]QTWQ[Pen][AEF][2Nal][Thp]EN[Thp]-NH2; disulfide 2-7) | 29
CC(=O)N[C@H](CCCNC(=N)N)C(=O)N[C@H]1CCSC[C@@H](C(=O)N[C@@H](Cc2ccc(OCCN)cc2)C(=O)N[C@@H](Cc2ccc3ccccc3c2)C(=O)NC2(C(=O)N[C@@](C)(CCC(=O)O)C(=O)N[C@@H](CC(N)=O)C(=O)N[C@@H](Cc3c[nH]c4ccc(F)cc34)C(N)=O)CCOCC2)NC(=O)[C@H](CCC(N)=O)NC(=O)[C@H](Cc2c[nH]c3ccccc23)NC(=O)[C@H]([C@@H](C)O)NC(=O)[C@H](CCC(N)=O)NC1=O [Compound 81, Ac-[(D)Arg]-[Abu]-Q-T-W-Q-[Cys]-Phe[4-(2-aminoethoxy)]-[2-Nal]-[THP]-[aMeGlu]-N-[W(5-F)]-NH2] | 30
CC(=O)N[C@H](CCCNC(=N)N)C(=O)N[C@H]1CCSC[C@@H](C(=O)N[C@@H](Cc2ccc(OCCN)cc2)C(=O)N[C@@H](Cc2ccc3ccccc3c2)C(=O)NC2(C(=O)N[C@@](C)(CCC(=O)O)C(=O)N[C@@H](CC(N)=O)C(=O)N[C@@H](Cc3ccc(C(N)=O)cc3)C(N)=O)CCOCC2)NC(=O)[C@H](CCC(N)=O)NC(=O)[C@H](Cc2c[nH]c3ccccc23)NC(=O)[C@H]([C@@H](C)O)NC(=O)[C@H](CCC(N)=O)NC1=O [Compound 34, Ac-[(D)Arg]-[Abu]-Q-T-W-Q-[Cys]-Phe[4-(2-aminoethoxy)]-[2-Nal]-[THP]-[aMeGlu]-N-[Phe(4-CONH2)]-NH2] | 5.8
CC(=O)NCCCC[C@H](NC(=O)[C@](C)(CCCCN)NC(=O)[C@H](Cc1ccc2ccccc2c1)NC(=O)[C@H](Cc1ccc(OCCN)cc1)NC(=O)[C@H]1NC(=O)[C@H](CCCCNC(=O)C(F)(F)F)NC(=O)[C@H](Cc2c[nH]c3ccccc23)NC(=O)[C@H]([C@@H](C)O)NC(=O)[C@H](CC(N)=O)NC(=O)[C@@H](NC(C)=O)C(C)(C)SSC1(C)C)C(=O)N[C@@H](CC(N)=O)C(=O)NC1(C(N)=O)CCOCC1 [Compound 103, Ac-[Pen]-N-T-W-[Lys(COCF3)]-[Pen]-Phe[4-(2-aminoethoxy)]-[2-Nal]-[a-MeLys]-[Lys(Ac)]-N-[THP]-NH2] | 57
CC(=O)NCCCC[C@@H]1NC(=O)[C@H](Cc2c[nH]c3c(C)cccc23)NC(=O)[C@H]([C@@H](C)O)NC(=O)[C@H](CC(N)=O)NC(=O)[C@@H](NC(C)=O)C(C)(C)SSC(C)(C)[C@@H](C(=O)N[C@@H](Cc2ccc(OCCN)cc2)C(=O)N[C@@H](Cc2ccc3ccccc3c2)C(=O)NC2(C(=O)N[C@@H](CCC(=O)O)C(=O)N[C@@H](CC(N)=O)C(=O)NC3(C(N)=O)CCOCC3)CC2)NC1=O [Compound 317, MeCO-Pen-N-T-7MeW-K(Ac)-Pen-AEF-2Nal-Acpx-E-N-THP---CONH2] | 13
CC(=O)NCCCC[C@@H]1NC(=O)[C@H](Cc2c[nH]c3c(C)cccc23)NC(=O)[C@H]([C@@H](C)O)NC(=O)[C@H](CC(N)=O)NC(=O)[C@@H](NC(C)=O)C(C)(C)SSC(C)(C)[C@@H](C(=O)N[C@@H](Cc2ccc(OCCN)cc2)C(=O)N[C@@H](Cc2ccc3ccccc3c2)C(=O)N[C@@](C)(CCCCN)C(=O)N[C@@H](CCCCNC(C)=O)C(=O)N[C@@H](CC(N)=O)C(=O)N[C@@](C)(Cc2ccccc2)C(=O)N[C@@H](Cc2cccnc2)C(N)=O)NC1=O [Compound 116, Ac-[Pen]-N-T-[W(7-Me)]-[Lys(Ac)]-[Pen]-Phe[4-(2-aminoethoxy)]-[2-Nal]-[a-MeLys]-[Lys(Ac)]-N-[a-MePhe]-[3Pal]-NH2] | 20
CC(=O)N[C@H](CCCNC(=N)N)C(=O)N[C@H]1CCSC[C@@H](C(=O)N[C@@H](Cc2ccc(OCCN)cc2)C(=O)N[C@@H](Cc2ccc3ccccc3c2)C(=O)NC2(C(=O)N[C@@](C)(CCC(=O)O)C(=O)N[C@@H](CC(N)=O)C(=O)N[C@@H](Cc3cc(F)cc(F)c3)C(N)=O)CCOCC2)NC(=O)[C@H](CCC(N)=O)NC(=O)[C@H](Cc2c[nH]c3ccccc23)NC(=O)[C@H]([C@@H](C)O)NC(=O)[C@H](CCC(N)=O)NC1=O [Compound 46, Ac-[(D)Arg]-[Abu]-Q-T-W-Q-[Cys]-Phe[4-(2-aminoethoxy)]-[2-Nal]-[THP]-[aMeGlu]-N-[Phe(3,5-diF)]-NH2] | 48
CC(=O)N[C@H](CCCNC(=N)N)C(=O)N[C@@H]1C(=O)N[C@@H](CCC(N)=O)C(=O)N[C@@H]([C@@H](C)O)C(=O)N[C@@H](Cc2c[nH]c3ccccc23)C(=O)N[C@@H](CCC(N)=O)C(=O)N[C@H](C(=O)N[C@@H](Cc2ccc(OCCN)cc2)C(=O)N[C@@H](Cc2ccc3ccccc3c2)C(=O)NC2(C(=O)N[C@@H](CCC(=O)O)C(=O)N[C@@H](CC(N)=O)C(=O)N[C@@](C)(Cc3ccccc3)C(N)=O)CCOCC2)C(C)(C)SSC1(C)C [Compound 97, Ac-[(D)Arg]-[Pen]-Q-T-W-Q-[Pen]-Phe[4-(2-aminoethoxy)]-[2-Nal]-[THP]-E-N-[a-MePhe]-NH2] (Ac-[dR][Pen]QTWQ[Pen][AEF][2Nal][Thp]EN[αMeF]-NH2; disulfide 2-7) | 31
COc1ccc(C[C@H](NC(=O)[C@@H]2CSCC[C@H](NC(=O)[C@@H](CCCNC(=N)N)NC(C)=O)C(=O)N[C@@H](CCC(N)=O)C(=O)N[C@@H]([C@@H](C)O)C(=O)N[C@@H](Cc3c[nH]c4ccccc34)C(=O)N[C@@H](CCC(N)=O)C(=O)N2)C(=O)N[C@@H](Cc2ccc3ccccc3c2)C(=O)NC2(C(=O)N[C@@](C)(CCC(=O)O)C(=O)N[C@@H](CC(N)=O)C(=O)N[C@@](C)(Cc3ccccc3)C(N)=O)CCOCC2)cc1OC [Compound 41, Ac-[(D)Arg]-[Abu]-Q-T-W-Q-[Cys]-[Phe(3,4-diOMe)]-[2-Nal]-[THP]-[aMeGlu]-N-[a-MePhe]-NH2] (Ac-[dR][Abu(4-yl)]QTWQC[Phe(3,4-(OMe)2)][2Nal][Thp][αMeE]N[αMeF]-NH2; thioether 2-7) | 2500
CC(=O)N[C@H](CCCNC(=N)N)C(=O)N[C@H]1CCSC[C@@H](C(=O)N[C@@H](Cc2ccc(OCCN)cc2)C(=O)N[C@@H](Cc2ccc3ccccc3c2)C(=O)NC2(C(=O)N[C@@H](CCC(N)=O)C(=O)N[C@@H](CC(N)=O)C(=O)N[C@@](C)(Cc3ccccc3)C(N)=O)CCOCC2)NC(=O)[C@H](CCC(N)=O)NC(=O)[C@H](Cc2c[nH]c3ccccc23)NC(=O)[C@H]([C@@H](C)O)NC(=O)[C@H](CCC(N)=O)NC1=O [Compound 30, Ac-[(D)Arg]-[Abu]-Q-T-W-Q-[Cys]-Phe[4-(2-aminoethoxy)]-[2-Nal]-[THP]-Q-N-[a-MePhe]-NH2] | 25
CC(=O)NCCCC[C@@H]1NC(=O)[C@H](Cc2c[nH]c3c(C)cccc23)NC(=O)[C@H]([C@@H](C)O)NC(=O)[C@H](CC(N)=O)NC(=O)[C@@H](NC(=O)[C@@H](CCCNC(=N)N)NC(C)=O)C(C)(C)SSC(C)(C)[C@@H](C(=O)N[C@@H](Cc2ccc(OCCN)cc2)C(=O)N[C@@H](Cc2ccc3ccccc3c2)C(=O)NC2(C(=O)N[C@@](C)(CCC(=O)O)C(=O)N[C@@H](CC(N)=O)C(=O)N[C@@](C)(Cc3ccc(O)cc3)C(N)=O)CCOCC2)NC1=O [Compound 150, Ac-[(D)Arg]-[Pen]-N-T-[W(7-Me)]-[Lys(Ac)]-[Pen]-Phe[4-(2-aminoethoxy)]-[2-Nal]-[THP]-[aMeGlu]-N-[aMeTyr]-NH2] (Ac-[dR][Pen]NT[Trp(7-Me)]K(Ac)[Pen][AEF][2Nal][Thp][αMeE]N[αMeY]-NH2; disulfide 2-7) | 4.7
CC(=O)NCCCC[C@@H]1NC(=O)[C@H](Cc2c[nH]c3ccccc23)NC(=O)[C@H]([C@@H](C)O)NC(=O)[C@H](CC(N)=O)NC(=O)[C@@H](NC(C)=O)CSSC[C@@](C)(C(=O)N[C@@H](Cc2ccc(OCCN)cc2)C(=O)N[C@@H](Cc2ccc3ccccc3c2)C(=O)N[C@@](C)(CCCCN)C(=O)N[C@@H](CCCCNC(C)=O)C(=O)N[C@@H](CC(N)=O)C(=O)N[C@@](C)(Cc2ccccc2)C(N)=O)NC1=O [Compound 122, Ac-[Cys]-N-T-W-[Lys(Ac)]-[aMeCys]-Phe[4-(2-aminoethoxy)]-[2-Nal]-[a-MeLys]-[Lys(Ac)]-N-[a-MePhe]-NH2] | 54
